From publication PMC7582725, “Suppression of hTAS2R16 Signaling by Umami Substances” (International Journal of Molecular Sciences, 2020)
Numbering of substitutions follows the chain as printed.

Key:
[1] = target: T1, hTAS2R16 (Homo sapiens, UniProt Q9NYV7); assay: Cellular Ca2+ response, cell-based assay (Calcium-4, FlexStation III) in HEK293T cells co-expressing wild-type hTAS2R16 and G16αgust44; conditions: for Maximal Response of salicin: Table 1
T1 construct: expressed in transfected cells; host or cells: HEK293T
T1 sequence (Q9NYV7 1-291): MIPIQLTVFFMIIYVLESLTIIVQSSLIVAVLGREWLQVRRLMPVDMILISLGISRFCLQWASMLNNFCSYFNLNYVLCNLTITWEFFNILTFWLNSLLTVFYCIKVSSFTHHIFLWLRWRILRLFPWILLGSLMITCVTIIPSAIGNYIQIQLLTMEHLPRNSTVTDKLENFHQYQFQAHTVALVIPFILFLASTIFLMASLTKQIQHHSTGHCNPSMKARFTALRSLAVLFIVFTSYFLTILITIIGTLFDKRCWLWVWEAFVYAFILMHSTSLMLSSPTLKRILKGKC
Procedure: (§1) HEK293T cells were purchased from American Type Culture Collection (ATCC; Manassas, VA, USA) and cultured as described previously. The plasmids hTAS2R16 and G16αgust44 were constructed as described previously. G16αgust44 and hTAS2R16 were cloned into a cytomegalovirus promoter-based vector and expressed constitutively. Point mutants of N96T and P44T on hTAS2R16 clone and DNA sequencings were performed by Macrogen (Geumcheon-gu, Seoul, Korea). The hTAS2R16 or point mutant expression plasmid was co-transfected with G16αgust44 expression plasmid (4:1) into HEK293T cells using Lipofectamine 2000 (Invitrogen, Carlsbad, CA, USA).
(§2) The umami substances-induced changes in the cytosolic Ca^2+ concentration were measured using a FlexStation III microplate reader (Molecular Devices, Sunnyvale, CA, USA). HEK293T cells transfected with hTAS2R16 were seeded onto 96-well black-wall CellBind surface plates (Corning, NY, USA) for 18–24 h before use. […] The cells were incubated in the dark for 30 min at 37 °C, and then for 15 min at 27 °C in assay buffer consisting of Calcium-4 (FLIPR Calcium 4 Assay Kit, Molecular Devices) and probenecid or the umami compounds. Following treatment, the fluorescence intensity (excitation, 486 nm; emission, 525 nm) of the cell was measured. The relative changes in cell Ca^2+ were plotted as ΔF/F0 on the y-axis, where ΔF is the change in Calcium-4 fluorescence intensity at each time point and F0 is the fluorescence intensity before treatment. The relative response induced by 10 mM salicin was assigned a value of 100.

[2] = target: T2, hTAS2R16 N96T (Homo sapiens, UniProt Q9NYV7, N96T); assay: Cellular Ca2+ response, cell-based assay in HEK293T cells expressing probenecid-insensitive mutant hTAS2R16 N96T; conditions: Table 3; pretreatment with sample 0.3 mM
T2 construct: expressed in transfected cells; host or cells: HEK293T
T2 sequence (Q9NYV7 1-291 N96T): T1 sequence (Q9NYV7 1-291) with N96T
Procedure: as §1, §2

[3] = target: T3, hTAS2R16 P44T (Homo sapiens, UniProt Q9NYV7, P44T); assay: Cellular Ca2+ response, cell-based assay in HEK293T cells expressing probenecid-insensitive mutant hTAS2R16 P44T
T3 construct: expressed in transfected cells; host or cells: HEK293T
T3 sequence (Q9NYV7 1-291 P44T): T1 sequence (Q9NYV7 1-291) with P44T
Procedure: as §1, §2

[4] = target: T1, hTAS2R16; assay: Ca2+ response of hTAS2R16-expressing HEK293T cells to bitter ligands in absence and presence of umami substances (Figure 1; fura-2 F340/F380 imaging / cell-based assay); conditions: MSG 80 mM, IMP 20 mM, L-theanine 80 mM, Glu-Glu 6 mM, Gly-Gly 6 mM
Procedure: We first verified if non-peptide umami substances affect the downstream signaling mechanism, such as changes in intracellular Ca^2+ of the human bitter taste receptor. […] The increase in fluorescence intensity ratio (F340/F380) with 10 mM salicin was expressed as 100. […] In addition to salicin, hTAS2R16 also recognizes bitter sugars such as phenyl β-D-glucopyranoside and arbutin, a glycosylated hydroquinone extracted from the bearberry plant in the genus Arctostaphylos.
(A) Chemical structures of tested compounds. Summarized data (B) and representative traces (C) showing responses of HEK293T cells co-expressing hTAS2R16 and Gα16gust44 to 10 mM salicin in the absence and presence of umami substances in a cell-based assay. (D,E) Representative ratiometric images of fura-2-loaded hTAS2R16-expressing cells in response to the other ligands, 5 mM arbutin (D) or phenyl β-D-glucopyranoside (E), in the presence of umami substances. The data were normalized as percentages to the maximal signal obtained with the ligands. The color scale indicates the F340/F380 ratio. Scale bar: 11.04 μm. Data are presented as means ± standard error of the mean (SEM) of at least three separate experiments. * p < 0.05, ** p < 0.01, and *** p < 0.001 vs. the 0 mM sample group by Student’s t-test.
as §2, with “Following treatment, the fluorescence intensity (excitation, 486 nm; emission, 525 nm) of the cell was measured.” left out
Cells were seeded onto 96-well black-wall imaging plates (BD Falcon Labware) for 18–26 h prior to their use in an experiment. […] The cells were rinsed with the buffer, incubated in probenecid or sample for 30 min, and then treated with solution containing the ligand. The Fura-2AM-induced fluorescence intensity (excitation at 340 and 380 nm) was measured at emission wavelength of 510 nm using a computer-controlled filter changer (Lambda DG4; Sutter, San Rafael, CA, USA), an Andor Luca CCD camera (Andor Technology, Belfast, UK), and an inverted fluorescence microscope (IX-71; Olympus, Tokyo, Japan). Images were obtained at 3-s intervals and analyzed using MetaFluor software (Molecular Devices, Sunnyvale, CA, USA).

[5] = target: T1, hTAS2R16; conditions: in the presence of 3 mM salicin; read-out: reported IC50; cited from earlier work
[6] = target: hTAS2R16 (human bitter taste receptor, type 2 taste receptor 16), wild type (human) (UniProt Q9NYV7)
[7] = target: hTAS2R16 (human bitter taste receptor, type 2 taste receptor 16), wild type (human) (UniProt Q9NYV7); remark: listed apart in the source
[8] = target: hTAS2R16 N96T (human) (UniProt Q9NYV7)
[9] = target: hTAS2R16 P44T (human) (UniProt Q9NYV7)
[10] = Table 3, pretreatment with sample 0.3 mM

CCCN(CCC)S(=O)(=O)c1ccc(C(=O)O)cc1 [Probenecid, ρ-(dipropylsulfamoyl)benzoic acid]
Maximal Response of salicin ([1]; pretreatment with sample 0.1 mM): 0.47 ΔF/F0
Maximal Response of salicin ([1]; pretreatment with sample 0.3 mM): 0.23 ΔF/F0
Maximal Response of salicin ([1]; pretreatment with sample 1 mM): 0.07 ΔF/F0
Maximal Response of salicin, WT [1, 10]: 0.23 ΔF/F0
mechanism of antagonism at hTAS2R16 ([1]; from salicin concentration–response curves at graded antagonist concentrations): full insurmountable antagonism
attenuation of salicin response by pretreatment, WT receptor ([1]; salicin 0.003–30 mM, probenecid 0.3 mM, L-theanine 80 mM): significant attenuation
Maximal Response of salicin, N96T [2]: 0.68 ΔF/F0
Maximal Response of salicin, P44T [3, 10]: 0.58 ΔF/F0
attenuation of salicin response by pretreatment, P44T mutant ([3]; salicin 0.003–30 mM, probenecid 0.3 mM, MSG 80 mM, L-theanine 80 mM): not in cells expressing the two mutants
inhibition of Ca2+ response to arbutin ([4]; 5 mM arbutin): inhibited
inhibition of Ca2+ response to phenyl β-D-glucopyranoside ([4]; phenyl β-D-glucopyranoside): inhibited
IC50 [5]: 290 µM

Glu-Glu (peptide)
maximal Ca2+ response (ΔF/F0) to salicin (0-30 mM) in cells expressing hTAS2R16 with Glu-Glu at 0, 1, 3, 6 and 10 mM (0.54 at 0 mM); value at 10 mM Glu-Glu [6]: 0.33 ΔF/F0
maximal Ca2+ response (ΔF/F0) to salicin in cells expressing wild-type hTAS2R16 after pretreatment with 6 mM Glu-Glu (0.54 without Glu-Glu) [7]: 0.4 ΔF/F0
maximal Ca2+ response (ΔF/F0) to salicin in cells expressing hTAS2R16 N96T after pretreatment with 6 mM Glu-Glu (0.61 without Glu-Glu); the text says the inhibition by Glu-Glu is lost in this mutant [8]: 0.65 ΔF/F0
maximal Ca2+ response (ΔF/F0) to salicin in cells expressing hTAS2R16 P44T after pretreatment with 6 mM Glu-Glu (0.62 without Glu-Glu) [9]: 0.42 ΔF/F0
